Paper PMC10343475, “Systematic Modification of the Substitution Pattern of the 7-Hydroxy-5-oxopyrazolo[4,3-b]pyridine-6-carboxamide Scaffold Enabled the Discovery of New Ligands with High Affinity and Selectivity for the Cannabinoid Type 2 Receptor” (Molecules, 2023)
Read-outs that look alike come from different tables or passages of the source.

Experiments:
[1] = biological target: human recombinant CB1 receptor (Homo sapiens, UniProt P21554); test: Competition binding assay, displacement of [3H]-CP-55,940, CB1R
Sequence of human recombinant CB1 receptor (P21554 whole entry): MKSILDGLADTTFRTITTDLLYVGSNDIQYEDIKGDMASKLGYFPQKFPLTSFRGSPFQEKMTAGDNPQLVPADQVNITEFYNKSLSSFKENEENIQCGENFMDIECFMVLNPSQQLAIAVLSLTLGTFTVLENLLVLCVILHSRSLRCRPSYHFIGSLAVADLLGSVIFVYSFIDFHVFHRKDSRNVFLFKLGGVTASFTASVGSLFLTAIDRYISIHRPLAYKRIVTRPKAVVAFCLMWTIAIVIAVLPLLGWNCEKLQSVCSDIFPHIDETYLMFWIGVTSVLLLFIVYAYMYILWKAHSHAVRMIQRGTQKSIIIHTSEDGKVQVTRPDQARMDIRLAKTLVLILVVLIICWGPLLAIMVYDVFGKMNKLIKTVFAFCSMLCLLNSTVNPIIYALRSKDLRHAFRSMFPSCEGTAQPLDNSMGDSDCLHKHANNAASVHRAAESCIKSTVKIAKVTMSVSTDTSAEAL
Experimental: (§1) Binding at equilibrium was performed as previously reported. […] All compounds were tested following the procedure described by the manufacturer (Perkin Elmer, Italy). […] Ki values were calculated by applying the Cheng–Prusoff equation to the IC50 values (obtained by GraphPad) for the displacement of the bound radioligand by increasing concentrations of the test compound.

human CB2 receptor = human CB2 receptor (Homo sapiens, UniProt P34972); test: Competition binding assay, displacement of [3H]-CP-55,940, CB2R; design: logKiCB2 (nM) Exp.: unit not given here; conditions: for Ki: membranes from HEK cells, [3H]CP-55,940, mean ± SD, at least three experiments in duplicate; for logKiCB2 (nM) Exp.: log of experimental Ki
Sequence of human CB2 receptor (P34972 whole entry): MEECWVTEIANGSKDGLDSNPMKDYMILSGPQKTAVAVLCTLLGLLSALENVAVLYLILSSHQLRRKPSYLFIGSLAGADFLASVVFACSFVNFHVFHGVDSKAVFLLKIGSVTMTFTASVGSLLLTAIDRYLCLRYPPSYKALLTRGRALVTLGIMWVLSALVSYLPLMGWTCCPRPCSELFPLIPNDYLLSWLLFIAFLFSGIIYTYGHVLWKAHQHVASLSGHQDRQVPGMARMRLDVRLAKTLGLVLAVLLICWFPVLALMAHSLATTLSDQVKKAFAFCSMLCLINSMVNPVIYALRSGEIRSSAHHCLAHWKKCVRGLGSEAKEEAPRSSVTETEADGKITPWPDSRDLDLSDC
Experimental: as §1

[2] = membranes from HEK cells, [3H]CP-55,940, mean ± SD, at least three experiments in duplicate, read-out: CB1R Ki

Row | SMILES | Ki [1, 2] [µM] | Ki (human CB2 receptor; read-out: CB2R Ki) [µM] | also measured
1 | CCCCn1c(=O)c(C(=O)NC(C)(C)C)c(O)c2nn(C)cc21 [Compound 13, 4-(1-Butyl)-N-(tert-butyl)-7-hydroxy-2-methyl-5-oxo-4,5-dihydro-2H-pyrazolo[4,3-b]pyridine-6-carboxamide] | > 10 | > 10 | –
2 | CCCCn1c(=O)c(C(=O)NC2CCCC2)c(O)c2nn(C)cc21 [Compound 14, 4-(1-Butyl)-N-cyclopentyl-7-hydroxy-2-methyl-5-oxo-4,5-dihydro-2H-pyrazolo[4,3-b]pyridine-6-carboxamide] | > 10 | > 10 | –
3 | CCCCn1c(=O)c(C(=O)Nc2ccc(F)cc2)c(O)c2nn(C)cc21 [Compound 16, 4-(1-Butyl)-N-(4-fluorophenyl)-7-hydroxy-2-methyl-5-oxo-4,5-dihydro-2H-pyrazolo[4,3-b]pyridine-6-carboxamide] | > 10 | > 10 | –
4 | CCCCn1c(=O)c(C(=O)NCc2ccc(F)cc2)c(O)c2nn(C)cc21 [Compound 17, 4-(1-Butyl)-N-(4-fluorobenzyl)-7-hydroxy-2-methyl-5-oxo-4,5-dihydro-2H-pyrazolo[4,3-b]pyridine-6-carboxamide] | > 10 | > 10 | –
5 | CCCCn1c(=O)c(C(=O)NC(c2ccccc2)c2ccccc2)c(O)c2nn(C)cc21 [Compound 19, N-Benzhydryl-4-(1-butyl)-7-hydroxy-2-methyl-5-oxo-4,5-dihydro-2H-pyrazolo[4,3-b]pyridine-6-carboxamide] | > 10 | 0.142 ± 0.11 | SI (selectivity index for CB2R, Ki(CB1R)/Ki(CB2R)) (human CB2 receptor): >70; logKiCB2 (nM) Exp. (human CB2 receptor): 2.15
6 | CCCCn1c(=O)c(C(=O)N[C@@H](Cc2ccccc2)C(=O)OC(C)(C)C)c(O)c2nn(C)cc21 [Compound 20, tert-Butyl (4-Butyl-7-hydroxy-2-methyl-5-oxo-4,5-dihydro-2H-pyrazolo[4,3-b]pyridine-6-carbonyl)-L-phenylalaninate] | > 10 | > 10 | –
7 | CC(C)n1c(=O)c(C(=O)NC23CC4CC(CC(C4)C2)C3)c(O)c2nn(C)cc21 [Compound 21, N-(Adamantan-1-yl)-7-hydroxy-4-isopropyl-2-methyl-5-oxo-4,5-dihydro-2H-pyrazolo[4,3-b]pyridine-6-carboxamide] | – | – | Ki [1]: > 10 µM; Ki (human CB2 receptor; CB2R Ki): > 10 µM
8 | CC(C)n1c(=O)c(C(=O)NC23CC4CC(CC(O)(C4)C2)C3)c(O)c2nn(C)cc21 [Compound 22, 7-Hydroxy-N-(1-hydroxyadamantan-3-yl)-4-isopropyl-2-methyl-5-oxo-4,5-dihydro-2H-pyrazolo[4,3-b]pyridine-6-carboxamide] | > 10 | > 10 | –
9 | CC(C)n1c(=O)c(C(=O)NC2CCCCCCC2)c(O)c2nn(C)cc21 [Compound 23, N-Cyclooctyl-7-hydroxy-4-isopropyl-2-methyl-5-oxo-4,5-dihydro-2H-pyrazolo[4,3-b]pyridine-6-carboxamide] | > 10 | > 10 | –
10 | CC(C)n1c(=O)c(C(=O)NC2CCCc3ccccc32)c(O)c2nn(C)cc21 (stereo not shown) [Compound 24, 7-Hydroxy-4-isopropyl-2-methyl-5-oxo-N-(1,2,3,4-tetrahydronaphthalen-1-yl)-4,5-dihydro-2H-pyrazolo[4,3-b]pyridine-6-carboxamide] | > 10 | > 10 | –
11 | CC(C)n1c(=O)c(C(=O)NC(c2ccccc2)c2ccccc2)c(O)c2nn(C)cc21 [Compound 25, N-Benzhydryl-7-hydroxy-4-isopropyl-2-methyl-5-oxo-4,5-dihydro-2H-pyrazolo[4,3-b]pyridine-6-carboxamide] | > 10 | > 10 | –
12 | CCCCn1c(=O)c(C(=O)NC(C)(C)C)c(O)c2nn(CC)cc21 [Compound 34, 4-(1-Butyl)-N-(tert-butyl)-2-ethyl-7-hydroxy-5-oxo-4,5-dihydro-2H-pyrazolo[4,3-b]pyridine-6-carboxamide] | > 10 | 0.106 ± 0.0181 | SI (selectivity index for CB2R, Ki(CB1R)/Ki(CB2R)) (human CB2 receptor): >95; logKiCB2 (nM) Exp. (human CB2 receptor): 2.02
13 | CC(C)n1c(=O)c(C(=O)NC23CC4CC(CC(C4)C2)C3)c(O)c2n[nH]cc21 [Compound 56] | > 10 | > 10 | CB2 receptor affinity in words (human CB2 receptor): inactive
